Test results published in patent publication US9856511B2, “Protease deubiquitinating inhibitor screening” (priority 2011, dated 2018).

How the values were obtained:
[1] = test system: isogenic clones of HCT116 colon cancer cells; test: Apoptosis in isogenic HCT116 clones, caspase cleaved cytokeratin-18 ELISA; type: cell-based
Description: The increase in sub G1 DNA content is associated with (i) activation of the apoptosis mediator caspase-3 and (ii) with cleavage of the caspase substrates poly-ADP ribose polymerase (PARP) and cytokeratin-18. […] Apoptosis induction by bortezomib is dependent on p53 and inhibited by overexpression of the Bcl-2 protein (16,17).
For determination of apoptosis parental HCT-116 p53+/+ cells were treated with the increasing doses of bortezomib or b-AP15 for 24 h. […] HCT-116 cells were seeded in 96-well microtiter plates at 10,000 cells per well and incubated overnight. Cells were treated with indicated drug for 24 h. At the end of the incubation period, NP40 was added to the tissue culture medium to 0.1% and 25 μl of the content of each well was assayed using the M30-Apoptosense® ELISA as previously described (43). Cell viability was determined by measuring acid phosphatase activity or using the FMCA method (44). For the acid phosphatase activity cells were seeded at 5000 cells per well in 96-well culture plates and incubated for 12 h at 37° C. Compounds were added to the cells in growth media and incubated for 72 h at 37° C. Cells were washed with 200 μl warm PBS. […] Absorbance was measured at 405 nm.
b-AP15 inhibits degradation of ubiquitin-tagged YFP in a proteasome reporter cell line (FIG. 1a). Levels of ^UbG76V-YFP accumulation were determined by flow cytometry and immunoblotting; immunoblot of ubiquitin conjugation in HCT-116 cells treated with b-AP15 (1 μM) or bortezomib (100 nM) (FIG. 1b). […] Immunoblot of ODC-1 levels in HCT-116 cells following treatment with bortezomib ([…] or b-Ap15 (1 μM) (FIG. 1d); values represent quantified optical density units of ODC-1 normalized to β-actin. Cell cycle profiles of b-AP15 treated HCT-116 cells (FIG. 1e); cells were analyzed by propidium iodide staining and flow cytometry. Levels of caspase activity in isogenic HCT-116 cells as determined by ELISA for caspase cleaved cytokeratin-18 (CK18-Asp398) following treatment with bortezomib (100 nM) or b-AP15 (1 μM) (**′P=0.01, ***′P=0.001) (FIG. 1f). […]

HCT116 cells = type: cell-based; details: human
From the text: These findings indicate that high molecular weight ubiquitin substrate complexes accumulating as a result of DUB inhibition can generate strong cytotoxicity that is insensitive to Bcl-2 over-expression. [table]

## CC(C)C[C@H](NC(=O)[C@H](Cc1ccccc1)NC(=O)c1cnccn1)B(O)O [bortezomib]
[1]
  apoptosis: effect of genetic disruption of BAX or PUMA: bortezomib-induced apoptosis is inhibited
HCT116 cells
  Fold induction DNAJB1 (Hsp40B1) mRNA: 5 fold
  Fold induction HSPA1B mRNA: 12 fold
  Fold induction HSPA6 (Hsp70B′) mRNA: 60 fold
